Data published in patent publication US12590118B2, “Salt and crystal form of steroid derivative regulator” (Shanghai Hansoh Biomedical Co., Ltd., priority 2019, dated 2026).

Assay: Crystal form stability experiment (XRPD)
Assay type: physicochemical
Method: X-ray powder diffraction assay was carried out, and the obtained data was compared with the initial data.

Structure (SMILES): C[C@@H]1C[C@H](C(=O)Cn2ccc(C#N)n2)[C@@]2(C)CC[C@H]3[C@@H](CC[C@@H]4C[C@](C)(O)CC[C@@H]43)[C@H]12 [Crystal form I, 1-(2-((3R,5R,8R,9R,10S,13S,14S,15R,17S)-3-Hydroxy-3,13,15-trimethylhexadecahydro-1H-cyclopenta[a]phenanthren-17-yl)-2-oxoethyl)-1H-pyrazole-3-carbonitrile]
- X-ray powder diffraction peak No. 1 (0 day (initial)): 7.3
- X-ray powder diffraction peak No. 2 (0 day (initial)): 11.1
- X-ray powder diffraction peak No. 3 (0 day (initial)): 11.9
- X-ray powder diffraction peak No. 4 (0 day (initial)): 12.6
- X-ray powder diffraction peak No. 5 (0 day (initial)): 16.7
- X-ray powder diffraction peak No. 6 (0 day (initial)): 17.4
- X-ray powder diffraction peak No. 7 (0 day (initial)): 20.2
- X-ray powder diffraction peak No. 8 (0 day (initial)): 20.6
- X-ray powder diffraction peak No. 9 (0 day (initial)): 21.9
- X-ray powder diffraction peak No. 10 (0 day (initial)): 23.9
- X-ray powder diffraction peak No. 11 (0 day (initial)): 38.4
- X-ray powder diffraction peak No. 1 (25° C. RH75%, 5 days): 7.3
- X-ray powder diffraction peak No. 2 (25° C. RH75%, 5 days): 11.0
- X-ray powder diffraction peak No. 3 (25° C. RH75%, 5 days): 11.8
- X-ray powder diffraction peak No. 4 (25° C. RH75%, 5 days): 12.5
- X-ray powder diffraction peak No. 5 (25° C. RH75%, 5 days): 16.6
- X-ray powder diffraction peak No. 6 (25° C. RH75%, 5 days): 17.3
- X-ray powder diffraction peak No. 7 (25° C. RH75%, 5 days): 20.1
- X-ray powder diffraction peak No. 8 (25° C. RH75%, 5 days): 20.5
- X-ray powder diffraction peak No. 9 (25° C. RH75%, 5 days): 21.7
- X-ray powder diffraction peak No. 10 (25° C. RH75%, 5 days): 24.1
- X-ray powder diffraction peak No. 11 (25° C. RH75%, 5 days): 38.2
- X-ray powder diffraction peak No. 1 (25° C. RH75%, 10 days): 7.3
- X-ray powder diffraction peak No. 2 (25° C. RH75%, 10 days): 11.0
- X-ray powder diffraction peak No. 3 (25° C. RH75%, 10 days): 11.8
- X-ray powder diffraction peak No. 4 (25° C. RH75%, 10 days): 12.5
- X-ray powder diffraction peak No. 5 (25° C. RH75%, 10 days): 16.6
- X-ray powder diffraction peak No. 6 (25° C. RH75%, 10 days): 17.3
- X-ray powder diffraction peak No. 7 (25° C. RH75%, 10 days): 20.1
- X-ray powder diffraction peak No. 8 (25° C. RH75%, 10 days): 20.5
- X-ray powder diffraction peak No. 9 (25° C. RH75%, 10 days): 21.8
- X-ray powder diffraction peak No. 10 (25° C. RH75%, 10 days): 24.1
- X-ray powder diffraction peak No. 11 (25° C. RH75%, 10 days): 38.2
- X-ray powder diffraction peak No. 1 (25° C. RH75%, 30 days): 7.1
- X-ray powder diffraction peak No. 2 (25° C. RH75%, 30 days): 11.2
- X-ray powder diffraction peak No. 3 (25° C. RH75%, 30 days): 11.7
- X-ray powder diffraction peak No. 4 (25° C. RH75%, 30 days): 12.4
- X-ray powder diffraction peak No. 5 (25° C. RH75%, 30 days): 16.5
- X-ray powder diffraction peak No. 6 (25° C. RH75%, 30 days): 17.2
- X-ray powder diffraction peak No. 7 (25° C. RH75%, 30 days): 20.0
- X-ray powder diffraction peak No. 8 (25° C. RH75%, 30 days): 20.7
- X-ray powder diffraction peak No. 9 (25° C. RH75%, 30 days): 22.0
- X-ray powder diffraction peak No. 10 (25° C. RH75%, 30 days): 24.0
- X-ray powder diffraction peak No. 11 (25° C. RH75%, 30 days): 38.2
- X-ray powder diffraction peak No. 1 (25° C. RH90%, 5 days): 7.2
- X-ray powder diffraction peak No. 2 (25° C. RH90%, 5 days): 11.0
- X-ray powder diffraction peak No. 3 (25° C. RH90%, 5 days): 11.8
- X-ray powder diffraction peak No. 4 (25° C. RH90%, 5 days): 12.5
- X-ray powder diffraction peak No. 5 (25° C. RH90%, 5 days): 16.5
- X-ray powder diffraction peak No. 6 (25° C. RH90%, 5 days): 17.3
- X-ray powder diffraction peak No. 7 (25° C. RH90%, 5 days): 20.1
- X-ray powder diffraction peak No. 8 (25° C. RH90%, 5 days): 20.5
- X-ray powder diffraction peak No. 9 (25° C. RH90%, 5 days): 21.7
- X-ray powder diffraction peak No. 10 (25° C. RH90%, 5 days): 24.1
- X-ray powder diffraction peak No. 11 (25° C. RH90%, 5 days): 38.3
- X-ray powder diffraction peak No. 1 (25° C. RH90%, 10 days): 7.2
- X-ray powder diffraction peak No. 2 (25° C. RH90%, 10 days): 11.0
- X-ray powder diffraction peak No. 3 (25° C. RH90%, 10 days): 11.8
- X-ray powder diffraction peak No. 4 (25° C. RH90%, 10 days): 12.5
- X-ray powder diffraction peak No. 5 (25° C. RH90%, 10 days): 16.6
- X-ray powder diffraction peak No. 6 (25° C. RH90%, 10 days): 17.3
- X-ray powder diffraction peak No. 7 (25° C. RH90%, 10 days): 20.2
- X-ray powder diffraction peak No. 8 (25° C. RH90%, 10 days): 20.5
- X-ray powder diffraction peak No. 9 (25° C. RH90%, 10 days): 21.8
- X-ray powder diffraction peak No. 10 (25° C. RH90%, 10 days): 23.8
- X-ray powder diffraction peak No. 11 (25° C. RH90%, 10 days): 38.3
- X-ray powder diffraction peak No. 1 (25° C. RH90%, 30 days): 7.2
- X-ray powder diffraction peak No. 2 (25° C. RH90%, 30 days): 11.0
- X-ray powder diffraction peak No. 3 (25° C. RH90%, 30 days): 11.8
- X-ray powder diffraction peak No. 4 (25° C. RH90%, 30 days): 12.5
- X-ray powder diffraction peak No. 5 (25° C. RH90%, 30 days): 16.6
- X-ray powder diffraction peak No. 6 (25° C. RH90%, 30 days): 17.3
- X-ray powder diffraction peak No. 7 (25° C. RH90%, 30 days): 20.1
- X-ray powder diffraction peak No. 8 (25° C. RH90%, 30 days): 20.5
- X-ray powder diffraction peak No. 9 (25° C. RH90%, 30 days): 21.8
- X-ray powder diffraction peak No. 10 (25° C. RH90%, 30 days): 24.0
- X-ray powder diffraction peak No. 11 (25° C. RH90%, 30 days): 38.2
- X-ray powder diffraction peak No. 1 (40° C., 5 days): 7.2
- X-ray powder diffraction peak No. 2 (40° C., 5 days): 11.0
- X-ray powder diffraction peak No. 3 (40° C., 5 days): 11.8
- X-ray powder diffraction peak No. 4 (40° C., 5 days): 12.5
- X-ray powder diffraction peak No. 5 (40° C., 5 days): 16.6
- X-ray powder diffraction peak No. 6 (40° C., 5 days): 17.3
- X-ray powder diffraction peak No. 7 (40° C., 5 days): 20.1
- X-ray powder diffraction peak No. 8 (40° C., 5 days): 20.5
- X-ray powder diffraction peak No. 9 (40° C., 5 days): 22.1
- X-ray powder diffraction peak No. 10 (40° C., 5 days): 23.8
- X-ray powder diffraction peak No. 11 (40° C., 5 days): 38.3
- X-ray powder diffraction peak No. 1 (40° C., 10 days): 7.3
- X-ray powder diffraction peak No. 2 (40° C., 10 days): 11.0
- X-ray powder diffraction peak No. 3 (40° C., 10 days): 11.8
- X-ray powder diffraction peak No. 4 (40° C., 10 days): 12.5
- X-ray powder diffraction peak No. 5 (40° C., 10 days): 16.6
- X-ray powder diffraction peak No. 6 (40° C., 10 days): 17.3
- X-ray powder diffraction peak No. 7 (40° C., 10 days): 20.2
- X-ray powder diffraction peak No. 8 (40° C., 10 days): 20.5
- X-ray powder diffraction peak No. 9 (40° C., 10 days): 21.9
- X-ray powder diffraction peak No. 10 (40° C., 10 days): 23.8
- X-ray powder diffraction peak No. 11 (40° C., 10 days): 38.2
- X-ray powder diffraction peak No. 1 (40° C., 30 days): 7.2
- X-ray powder diffraction peak No. 2 (40° C., 30 days): 11.0
- X-ray powder diffraction peak No. 3 (40° C., 30 days): 11.8
- X-ray powder diffraction peak No. 4 (40° C., 30 days): 12.5
- X-ray powder diffraction peak No. 5 (40° C., 30 days): 16.6
- X-ray powder diffraction peak No. 6 (40° C., 30 days): 17.3
- X-ray powder diffraction peak No. 7 (40° C., 30 days): 20.1
- X-ray powder diffraction peak No. 8 (40° C., 30 days): 20.5
- X-ray powder diffraction peak No. 9 (40° C., 30 days): 22.0
- X-ray powder diffraction peak No. 10 (40° C., 30 days): 23.7
- X-ray powder diffraction peak No. 11 (40° C., 30 days): 38.2
- X-ray powder diffraction peak No. 1 (60° C., 5 days): 7.1
- X-ray powder diffraction peak No. 2 (60° C., 5 days): 10.9
- X-ray powder diffraction peak No. 3 (60° C., 5 days): 11.7
- X-ray powder diffraction peak No. 4 (60° C., 5 days): 12.4
- X-ray powder diffraction peak No. 5 (60° C., 5 days): 16.5
- X-ray powder diffraction peak No. 6 (60° C., 5 days): 17.2
- X-ray powder diffraction peak No. 7 (60° C., 5 days): 20.0
- X-ray powder diffraction peak No. 8 (60° C., 5 days): 20.7
- X-ray powder diffraction peak No. 9 (60° C., 5 days): 22.0
- X-ray powder diffraction peak No. 10 (60° C., 5 days): 24.0
- X-ray powder diffraction peak No. 11 (60° C., 5 days): 38.2
- X-ray powder diffraction peak No. 1 (60° C., 10 days): 7.2
- X-ray powder diffraction peak No. 2 (60° C., 10 days): 10.9
- X-ray powder diffraction peak No. 3 (60° C., 10 days): 11.7
- X-ray powder diffraction peak No. 4 (60° C., 10 days): 12.4
- X-ray powder diffraction peak No. 5 (60° C., 10 days): 16.5
- X-ray powder diffraction peak No. 6 (60° C., 10 days): 17.2
- X-ray powder diffraction peak No. 7 (60° C., 10 days): 20.1
- X-ray powder diffraction peak No. 8 (60° C., 10 days): 20.7
- X-ray powder diffraction peak No. 9 (60° C., 10 days): 22.0
- X-ray powder diffraction peak No. 10 (60° C., 10 days): 24.0
- X-ray powder diffraction peak No. 11 (60° C., 10 days): 38.2
- X-ray powder diffraction peak No. 1 (60° C., 30 days): 7.2
- X-ray powder diffraction peak No. 2 (60° C., 30 days): 11.0
- X-ray powder diffraction peak No. 3 (60° C., 30 days): 11.8
- X-ray powder diffraction peak No. 4 (60° C., 30 days): 12.5
- X-ray powder diffraction peak No. 5 (60° C., 30 days): 16.6
- X-ray powder diffraction peak No. 6 (60° C., 30 days): 17.3
- X-ray powder diffraction peak No. 7 (60° C., 30 days): 20.1
- X-ray powder diffraction peak No. 8 (60° C., 30 days): 20.4
- X-ray powder diffraction peak No. 9 (60° C., 30 days): 21.8
- X-ray powder diffraction peak No. 10 (60° C., 30 days): 23.8
- X-ray powder diffraction peak No. 11 (60° C., 30 days): 38.2
- X-ray powder diffraction peak No. 1 (Light, 5 days): 7.3
- X-ray powder diffraction peak No. 2 (Light, 5 days): 11.0
- X-ray powder diffraction peak No. 3 (Light, 5 days): 11.9
- X-ray powder diffraction peak No. 4 (Light, 5 days): 12.5
- X-ray powder diffraction peak No. 5 (Light, 5 days): 16.6
- X-ray powder diffraction peak No. 6 (Light, 5 days): 17.3
- X-ray powder diffraction peak No. 7 (Light, 5 days): 20.1
- X-ray powder diffraction peak No. 8 (Light, 5 days): 20.6
- X-ray powder diffraction peak No. 9 (Light, 5 days): 22.1
- X-ray powder diffraction peak No. 10 (Light, 5 days): 23.9
- X-ray powder diffraction peak No. 11 (Light, 5 days): 38.3
- X-ray powder diffraction peak No. 1 (Light, 10 days): 7.3
- X-ray powder diffraction peak No. 2 (Light, 10 days): 11.1
- X-ray powder diffraction peak No. 3 (Light, 10 days): 11.9
- X-ray powder diffraction peak No. 4 (Light, 10 days): 12.5
- X-ray powder diffraction peak No. 5 (Light, 10 days): 16.7
- X-ray powder diffraction peak No. 6 (Light, 10 days): 17.3
- X-ray powder diffraction peak No. 7 (Light, 10 days): 20.2
- X-ray powder diffraction peak No. 8 (Light, 10 days): 20.5
- X-ray powder diffraction peak No. 9 (Light, 10 days): 21.9
- X-ray powder diffraction peak No. 10 (Light, 10 days): 23.9
- X-ray powder diffraction peak No. 11 (Light, 10 days): 38.3
- crystal form stability by XRPD (in words) (light, 40° C., 60° C., 25° C./RH75%, 25° C./RH90%, 5, 10 and 30 days): No crystal form conversion had occurred
